Molecular target: T1, hERG channel (Homo sapiens, UniProt Q12809)
T1 construct: purchased Perkin Elmer RBHERGM400UA; host or cells: HEK-293 cells transfected with hERG (membrane preparation)
Experiment: hERG Receptor Binding Assay (125I-BeKm-1, membranes from HEK-293 cells containing transfected hERG channels)
Details: 125I-BeKm-1 0.1 nM final, 1 hr at room temperature
Description: Medium throughput screening of compounds for interaction with the human Ether-a-go-go related gene (hERG) was performed by modification of equilibrium dissociation assays using 125I-labelled peptide BeKm-1. BeKm-1, a scorpion toxin from the Central Asian scorpion Buthus eupeus, selectively blocks the hERG channel. Angelo, K., et al., 2003, Pflugers Arch.-Eur. J. Physiol., 447: 55-63; Chiu, P J S, et al., J. Pharmacol. Sci., 2004, 95: 311-319. Isolated membrane preparations from HEK-293 cells containing transfected hERG channels (hERG K+ Channel Membrane Target Systems™; Cat #, RBHERGM400UA) (Perkin Elmer, Boston, Mass.) were suspended in assay buffer A at a final concentration of 1:150 v/v. Compounds for screening, and non-radiolabelled BeKm-1, as well as 125I-BeKm-1 radioligand (Perkin Elmer; Cat #, NEX-412; Specific Activity 2,200 Ci/mmol), were also reconstituted in Buffer A. Assay components were incubated in 96-well, round-bottom polypropylene plates in the following ratio:
25 μl compound at appropriate concentrations
25 μl radiolabelled BeKm-1 at 0.8 nM (final concentration of 0.1 nM)
150 μl membrane preparation
The assay was incubated with shaking for 1 hr at room temperature. Subsequently, the well contents were transferred to 96-well filtration plates (GF/C multiwell plates (MultiScreen™ HTS; Millipore, 290 Concord Road, Billerica, Mass. 01821 USA; Cat# MSFBN6B-XX pre-soaked in 0.3% polyethyleneimine; Acros Organics, NJ; Cat#178571000). Unbound radioactivity was removed and the membranes washed 4 times with ice-cold Buffer B, under vacuum. Plates were air-dried and bound radioactivity counted on a Packard Top-Count NXT™ microplate scintillation and luminescence counter (Packard Instrument Co., Downers Grove, Ill.). Equilibrium dissociation was analyzed and IC50 and/or Ki values were calculated using GraphPad Prism 4™ software (GraphPad Software, San Diego, Calif.).
Assay Buffer A: ([…] (MP Biomedicals, LLC; 29525 Fountain Parkway, Solon Ohio, 441389; Cat #1688449) in water, pH 7.2 with 1M Tris (Fisher Chemicals, Fair Lawn, N.J. 07410; Cat #, BP-1757-500); 100 μM KCl (Fisher Chemicals, Cat #, BP-366-500); 0.1% BSA (Sigma Aldrich, 3050 Spruce Street, St. Louis, Mo. 63103; Cat #, A3059). Assay Buffer B: 20 mM Tris HCl, pH 7.3; 150 mM NaCl (Fisher Chemicals; Cat #, S78449).
The hERG binding assay results are summarized in Table 2, wherein A represents no measured activity (i.e., a value greater than 100 μM), and B represents a value greater than 10 μM but less than 100 μM and C represents a value less than 10 μM.

T1 sequence (Q12809 whole entry): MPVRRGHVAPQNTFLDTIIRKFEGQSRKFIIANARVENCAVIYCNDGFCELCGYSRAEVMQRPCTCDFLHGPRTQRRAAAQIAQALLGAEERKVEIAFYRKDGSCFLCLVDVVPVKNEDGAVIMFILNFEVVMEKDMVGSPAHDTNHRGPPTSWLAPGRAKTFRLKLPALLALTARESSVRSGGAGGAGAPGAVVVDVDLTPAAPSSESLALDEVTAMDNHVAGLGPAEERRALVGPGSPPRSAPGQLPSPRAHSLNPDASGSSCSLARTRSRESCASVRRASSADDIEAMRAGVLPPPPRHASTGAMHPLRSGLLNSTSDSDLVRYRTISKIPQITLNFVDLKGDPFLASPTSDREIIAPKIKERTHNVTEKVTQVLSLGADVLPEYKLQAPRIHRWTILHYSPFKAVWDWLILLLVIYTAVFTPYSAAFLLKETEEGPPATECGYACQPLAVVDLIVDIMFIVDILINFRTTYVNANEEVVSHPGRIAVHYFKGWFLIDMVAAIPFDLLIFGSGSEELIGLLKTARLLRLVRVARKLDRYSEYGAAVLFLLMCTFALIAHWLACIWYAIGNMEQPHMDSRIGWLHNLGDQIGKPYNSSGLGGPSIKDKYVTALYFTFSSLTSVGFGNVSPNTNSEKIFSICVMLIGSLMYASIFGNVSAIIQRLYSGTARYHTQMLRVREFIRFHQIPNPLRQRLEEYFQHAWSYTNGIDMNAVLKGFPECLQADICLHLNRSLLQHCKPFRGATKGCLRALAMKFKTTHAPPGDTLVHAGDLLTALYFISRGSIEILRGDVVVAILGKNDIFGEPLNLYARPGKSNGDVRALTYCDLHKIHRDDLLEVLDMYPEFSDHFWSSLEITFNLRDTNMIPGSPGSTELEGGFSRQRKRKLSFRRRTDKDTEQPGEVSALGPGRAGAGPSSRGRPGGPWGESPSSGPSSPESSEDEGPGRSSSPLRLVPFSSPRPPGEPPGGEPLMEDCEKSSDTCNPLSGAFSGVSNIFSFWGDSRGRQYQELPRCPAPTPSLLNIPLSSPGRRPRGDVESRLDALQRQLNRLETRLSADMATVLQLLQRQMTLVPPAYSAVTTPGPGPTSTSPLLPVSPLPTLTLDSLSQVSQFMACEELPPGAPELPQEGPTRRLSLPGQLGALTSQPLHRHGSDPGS

Row | Compound | Ki
1 | N#Cc1ccc(Oc2cc(Cl)cc(Cl)c2)c(S(=O)(=O)N2CCC(NC(=O)NCc3ccco3)CC2)c1 [Compound 16, 1-(1-(5-cyano-2-(3,5-dichlorophenoxy)phenylsulfonyl)piperidin-4-yl)-3-(furan-2-ylmethyl)urea] | > 100 µM
2 | N#Cc1ccc(Oc2cc(Cl)cc(Cl)c2)c(S(=O)(=O)N2CCC(NC(=O)CCCCl)CC2)c1 [Compound 8, 4-chloro-N-(1-(5-cyano-2-(3,5-dichlorophenoxy)phenylsulfonyl)piperidin-4-yl)butanamide] | > 100 µM
3 | CC(C)NC(=O)NC1CCN(S(=O)(=O)c2cc(C#N)ccc2Oc2cc(Cl)cc(Cl)c2)CC1 [Compound 12, 1-(1-(5-cyano-2-(3,5-dichlorophenoxy)phenylsulfonyl)piperidin-4-yl)-3-isopropylurea] | > 100 µM
4 | Cc1ccc(C(=O)NC2CCN(S(=O)(=O)c3cc(C#N)ccc3Oc3cc(Cl)cc(Cl)c3)CC2)cc1 [Compound 10, N-(1-(5-cyano-2-(3,5-dichlorophenoxy)phenylsulfonyl)piperidin-4-yl)-4-methylbenzamide] | > 100 µM
5 | CSCCCNC(=S)NC1CCN(S(=O)(=O)c2cc(C#N)ccc2Oc2cc(Cl)cc(Cl)c2)CC1 [Compound 18, 1-(1-(5-cyano-2-(3,5-dichlorophenoxy)phenylsulfonyl)piperidin-4-yl)-3-(3-(methylthio)propyl)thiourea] | > 100 µM
6 | CC(C)NC(=S)NC1CCN(S(=O)(=O)c2cc(C#N)ccc2Oc2cc(Cl)cc(Cl)c2)CC1 [Compound 17, 1-(1-(5-cyano-2-(3,5-dichlorophenoxy)phenylsulfonyl)piperidin-4-yl)-3-isopropylthiourea] | > 100 µM
7 | CC(=O)NC1CCN(S(=O)(=O)c2cc(C#N)ccc2Oc2cc(Cl)cc(Cl)c2)CC1 [Compound 5, N-(1-(5-cyano-2-(3,5-dichlorophenoxy)phenylsulfonyl)piperidin-4-yl)acetamide] | > 100 µM
8 | N#Cc1ccc(Oc2cc(Cl)cc(Cl)c2)c(S(=O)(=O)N2CCC(NC(=O)c3cccc(F)c3)CC2)c1 [Compound 11, N-(1-(5-cyano-2-(3,5-dichlorophenoxy)phenylsulfonyl)piperidin-4-yl)-3-fluorobenzamide] | > 100 µM
9 | C=CCNC(=O)NC1CCN(S(=O)(=O)c2cc(C#N)ccc2Oc2cc(Cl)cc(Cl)c2)CC1 [Compound 13, 1-allyl-3-(1-(5-cyano-2-(3,5-dichlorophenoxy)phenylsulfonyl)piperidin-4-yl)urea] | > 100 µM

Molecular target: T2, CCR3 receptor (UniProt P51677)
T2 sequence (P51677 1-355): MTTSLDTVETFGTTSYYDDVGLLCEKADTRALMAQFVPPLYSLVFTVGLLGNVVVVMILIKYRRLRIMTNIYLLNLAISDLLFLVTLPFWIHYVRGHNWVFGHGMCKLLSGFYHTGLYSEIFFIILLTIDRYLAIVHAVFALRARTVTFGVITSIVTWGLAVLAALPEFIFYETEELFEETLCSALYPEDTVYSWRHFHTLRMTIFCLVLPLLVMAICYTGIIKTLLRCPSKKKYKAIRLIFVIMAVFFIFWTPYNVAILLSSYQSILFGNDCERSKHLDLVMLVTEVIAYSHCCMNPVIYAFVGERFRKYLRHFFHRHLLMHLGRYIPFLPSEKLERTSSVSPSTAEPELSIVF
Experiment: CCR3 Receptor Binding Assay ([125I]-labeled human eotaxin/CCL11 displacement on cells)
Details: 0.1 nM [125I]-labeled human eotaxin/CCL11, 60 min at room temperature
Description: Cells were washed once with PBS and resuspended in a binding buffer (25 mM HEPES pH 7.6, 5 mM MgCl2, 1 mM CaCl2, 0.5% BSA, 0.1% NaN3). […] of cell suspension (2×10^5 cells/well) and 0.1 nM [^125I]-labeled human eotaxin/CCL11 (2000 Ci/mmol specific activity) were mixed in a 96-well U-bottom polypropylene plate, and incubated for 60 min at room temperature for the binding reaction. The cell suspension was then transferred to a filtration plate (#MAFB, Millipore), and washed 3 times with the binding buffer containing 0.5 M NaCl, scintillant added, and the radioactivity was counted on a TopCount (Packard). For the determination of non-specific binding, the cell suspension and [^125I]-labeled human eotaxin/CCL11 were incubated in the presence of 500 nM of unlabeled human eotaxin/CCL11. See, lino et al., “Molecular cloning and functional characterization of cynomolgus monkey (Macaca fascicularis) CC chemokine receptor, CCR3,” Cytokine 2002, 19, 276-286.
The biological results are summarized in Table 1, wherein A represents a value no greater than 50 nM, and B represents a value greater than 50 nM but no greater than 500 nM, C represents a value greater than 500 nM but no greater than 5 μM; and D represents a value greater than 5 μM.

Row | Compound | Ki
10 | Cc1ccc(S(=O)(=O)N2CCC(NS(=O)(=O)c3cc(C#N)ccc3Oc3cc(C)cc(C)c3)CC2)cc1 [Compound 31, 5-cyano-2-(3,5-dimethylphenoxy)-N-(1-tosylpiperidin-4-yl)benzenesulfonamide] | > 5 µM
11 | N#Cc1ccc(Oc2cc(Cl)cc(Cl)c2)c(S(=O)(=O)NC2CCN(C(=O)c3ccc(C(F)(F)F)cc3)CC2)c1 [Compound 34] | > 5 µM
12 | Cc1cc(C)cc(Sc2ccc(C#N)cc2S(=O)(=O)NC2CCN(C(=O)OC(C)(C)C)CC2)c1 [Compound 23] | 0.5 to 5 µM
13 | N#Cc1ccc(Oc2cc(Cl)cc(Cl)c2)c(S(=O)(=O)N2CCC(NC(=O)NCCN3CCOCC3)CC2)c1 [Compound 22, 1-(1-(5-cyano-2-(3,5-dichlorophenoxy)phenylsulfonyl)piperidin-4-yl)-3-(2-morpholinoethyl)urea] | ≤ 0.05 µM
14 | N#Cc1ccc(Oc2cc(Cl)cc(Cl)c2)c(S(=O)(=O)NC2CCN(S(=O)(=O)c3cccc(F)c3)CC2)c1 [Compound 32, 5-cyano-2-(3,5-dichlorophenoxy)-N-(1-(3-fluorophenylsulfonyl)piperidin-4-yl)benzenesulfonamide] | > 5 µM
15 | N#Cc1ccc(Oc2cc(Cl)cc(Cl)c2)c(S(=O)(=O)NC2CCN(C(=O)c3ccccc3)CC2)c1 [Compound 35] | > 5 µM

More lines, now with the values ahead:

Row | Ki | Compound
16 | ≤ 0.05 µM | N#Cc1ccc(Oc2cc(Cl)cc(Cl)c2)c(S(=O)(=O)N2CCC(NC(=O)NCCN3CCC(F)CC3)CC2)c1 [Compound 50, 1-(1-(5-cyano-2-(3,5-dichlorophenoxy)phenylsulfonyl)piperidin-4-yl)-3-(2-(4-fluoropiperidin-1-yl)ethyl)urea]
17 | ≤ 0.05 µM | CN1CCN(CCNC(=O)NC2CCN(S(=O)(=O)c3cc(C#N)ccc3Oc3cc(Cl)cc(Cl)c3)CC2)CC1 [Compound 51, 1-(1-(5-cyano-2-(3,5-dichlorophenoxy)phenylsulfonyl)piperidin-4-yl)-3-(2-(4-methylpiperazin-1-yl)ethyl)urea]
18 | ≤ 0.05 µM | N#Cc1ccc(Oc2cc(Cl)cc(Cl)c2)c(S(=O)(=O)N2CCC(NC(=O)NCCN3CCCCC3)CC2)c1 [Compound 48, 1-(1-(5-cyano-2-(3,5-dichlorophenoxy)phenylsulfonyl)piperidin-4-yl)-3-(2-(piperidin-1-yl)ethyl)urea]
19 | ≤ 0.05 µM | [2H]c1c([2H])c(Oc2cc(Cl)cc(Cl)c2)c(S(=O)(=O)N2CCC(NC(=O)NCCN3C([2H])([2H])C([2H])([2H])OC([2H])([2H])C3([2H])[2H])CC2)c([2H])c1C#N [Compound 54, 1-(1-(5-cyano-3,4,6-trideutero-2-(3,5-dichlorophenoxy)phenylsulfonyl)piperidin-4-yl)-3-(2-(2,2,3,3,5,5,6,6-octadeutero-morpholino)ethyl)urea]
20 | ≤ 0.05 µM | N#Cc1ccc(Oc2cc(Cl)cc(Cl)c2)c(S(=O)(=O)N2CCC(NC(=O)NCCN3CCSCC3)CC2)c1 [Compound 47, 1-(1-(5-cyano-2-(3,5-dichlorophenoxy)phenylsulfonyl)piperidin-4-yl)-3-(2-thiomorpholinoethyl)urea]
21 | > 5 µM | CC(C)C(=O)N1CCC(NS(=O)(=O)c2cc(C#N)ccc2Oc2cc(Cl)cc(Cl)c2)CC1 [Compound 39]
22 | ≤ 0.05 µM | N#Cc1ccc(Oc2cc(Cl)cc(Cl)c2)c(S(=O)(=O)N2CCC(NC(=O)NCCN3CCNCC3)CC2)c1 [Compound 49, 1-(1-(5-cyano-2-(3,5-dichlorophenoxy)phenylsulfonyl)piperidin-4-yl)-3-(2-(piperazin-1-yl)ethyl)urea]
23 | 0.5 to 5 µM | CC(C)(C)OC(=O)N1CCC(NS(=O)(=O)c2cc(C#N)ccc2Sc2cc(Cl)cc(Cl)c2)CC1 [Compound 45]
24 | > 5 µM | Cc1cc(C)cc(Oc2ccc(C#N)cc2S(=O)(=O)NC2CCN(S(C)(=O)=O)CC2)c1 [Compound 37]
25 | ≤ 0.05 µM | [2H]c1c([2H])c(Oc2cc(Cl)cc(Cl)c2)c(S(=O)(=O)N2CCC(NC(=O)NCC=C)CC2)c([2H])c1C#N [Compound 53, 1-allyl-3-(1-(5-cyano-3,4,6-trideutero-2-(3,5-dichlorophenoxy)phenylsulfonyl)piperidin-4-yl)urea]
26 | 0.05 to 0.5 µM | N#Cc1ccc(Oc2cc(Cl)cc(Cl)c2)c(S(=O)(=O)NC2CCN(C(=O)Nc3cccc(F)c3)CC2)c1 [Compound 44]
